These results are taken from patent publication US20110039857A1, “PIPERIDINE AND PYROOLIDINE COMPOUNDS” (priority 2008, published 2011).

One assay concerns the target T1, human orexin-1 receptor (Homo sapiens, UniProt O43613).
T1 construct: expressed in transfected cells; host or cells: CHO (Chinese hamster ovary) cells under G418 selection
T1 sequence (O43613 1-425): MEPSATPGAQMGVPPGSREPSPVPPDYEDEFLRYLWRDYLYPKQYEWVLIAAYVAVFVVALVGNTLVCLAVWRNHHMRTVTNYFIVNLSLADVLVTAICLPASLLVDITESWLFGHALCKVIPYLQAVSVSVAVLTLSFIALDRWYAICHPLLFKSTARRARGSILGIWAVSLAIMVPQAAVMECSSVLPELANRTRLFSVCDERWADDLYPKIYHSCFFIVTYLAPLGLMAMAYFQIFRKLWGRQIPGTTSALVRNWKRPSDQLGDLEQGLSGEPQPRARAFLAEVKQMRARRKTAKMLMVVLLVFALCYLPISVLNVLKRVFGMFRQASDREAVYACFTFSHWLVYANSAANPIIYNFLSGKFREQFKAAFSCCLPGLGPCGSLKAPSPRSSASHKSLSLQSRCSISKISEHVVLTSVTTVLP
Kind of assay: Intracellular calcium measurements (FLIPR), orexin receptor antagonistic activity. The following applies: CHO cells expressing human orexin-1 receptor; agonist 3 nM orexin-A; read-out: OX1 IC50. Type of assay: cell-based. The protocol:
(§1) The orexin receptor antagonistic activity of the compounds of formula (I) is determined in accordance with the following experimental method.
(§2) Intracellular Calcium Measurements:
(§3) Chinese hamster ovary (CHO) cells expressing the human orexin-1 receptor and the human orexin-2 receptor, respectively, are grown in culture medium (Ham F-12 with L-Glutamine) containing 300 μg/ml G418, 100 U/ml penicillin, 100 μg/ml streptomycin and 10% heat inactivated fetal calf serum (FCS). The cells are seeded at 20′000 cells/well into 384-well black clear bottom sterile plates (Greiner). The seeded plates are incubated overnight at 37° C. in 5% CO2.
(§4) Human orexin-A as an agonist is prepared as 1 mM stock solution in MeOH: water (1:1), diluted in HBSS containing 0.1% bovine serum albumin (BSA), NaHCO3: 0.375g/l and 20 mM HEPES for use in the assay at a final concentration of 3 nM.
(§5) Antagonists are prepared as 10 mM stock solution in DMSO, then diluted in 384-well plates using DMSO followed by a transfer of the dilutions into in HBSS containing 0.1% bovine serum albumin (BSA), NaHCO3: 0.375g/l and 20 mM HEPES. On the day of the assay, 50 μl of staining buffer (HBSS containing 1% FCS, 20 mM HEPES, NaHCO3: 0.375g/l, 5 mM probenecid (Sigma) and 3 μM of the fluorescent calcium indicator fluo-4 AM (1 mM stock solution in DMSO, containing 10% pluronic) is added to each well. The 384-well cell-plates are incubated for 50 min at 37° C. in 5% CO2 followed by equilibration at RT for 30-120 min before measurement.
(§6) Within the Fluorescent Imaging Plate Reader (FLIPR, Molecular Devices), antagonists are added to the plate in a volume of 10 μl/well, incubated for 10 min and finally 10 μl/well of agonist is added. Fluorescence is measured for each well at 1 second intervals, and the height of each fluorescence peak is compared to the height of the fluorescence peak induced by 3 nM orexin-A with vehicle in place of antagonist. For each antagonist, the IC50 value (the concentration of compound needed to inhibit 50% of the agonistic response) is determined.
(In general: Calcium flux is commonly read through the fluorescence of an indicator in the cells.)

In a further assay the target is T2, human orexin-2 receptor (Homo sapiens, UniProt O43614).
T2 construct: expressed in transfected cells; host or cells: CHO (Chinese hamster ovary) cells under G418 selection
T2 sequence (O43614 1-444): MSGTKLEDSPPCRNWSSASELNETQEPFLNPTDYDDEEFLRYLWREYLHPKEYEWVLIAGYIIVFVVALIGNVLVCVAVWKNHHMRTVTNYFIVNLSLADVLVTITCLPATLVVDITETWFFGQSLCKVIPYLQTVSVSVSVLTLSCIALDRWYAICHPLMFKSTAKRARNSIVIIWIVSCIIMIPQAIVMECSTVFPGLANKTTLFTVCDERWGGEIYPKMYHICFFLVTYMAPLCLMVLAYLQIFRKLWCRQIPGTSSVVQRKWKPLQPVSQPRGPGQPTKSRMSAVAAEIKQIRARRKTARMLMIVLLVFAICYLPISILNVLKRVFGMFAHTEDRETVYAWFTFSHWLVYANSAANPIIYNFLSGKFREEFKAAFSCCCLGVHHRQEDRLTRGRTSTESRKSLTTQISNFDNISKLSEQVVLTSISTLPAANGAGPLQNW
The assay is described as above. Type of assay: cell-based. The following applies: CHO cells expressing human orexin-2 receptor; agonist 3 nM orexin-A; read-out: OX2 IC50. The protocol:
as §1, §2, §3, §4, §5, §6

Regarding `Cc1ccc(-c2ccccc2C(=O)N2CCC[C@@H](NC(=O)c3cn(C)c4ccccc34)C2)cc1C` [Example 41, (R)-1-Methyl-1H-indole-3-carboxylic acid[1-(3′,4′-dimethyl-biphenyl-2-carbonyl)-piperidin-3-yl]-amide], the IC50 at human orexin-1 receptor was 32 nM; at human orexin-2 receptor, 25 nM.

In the case of `Cc1ccc(-c2ccccc2C(=O)N2CCC[C@@H](Nc3nccc(C(F)(F)F)n3)C2)cc1C` [Example 1, (R)-(3′,4′-Dimethyl-biphenyl-2-yl)-[3-(4-trifluoromethyl-pyrimidin-2-ylamino)-piperidin-1-yl]-methanone], the results for the IC50 on human orexin-1 receptor and on human orexin-2 receptor were 58 nM and 43 nM, respectively.

Turning to `Cc1cccc(-c2ccccc2C(=O)N2CCC[C@@H](NC(=O)c3nn(C)c4ccccc34)C2)c1` [Example 34, (R)-1-Methyl-1H-indazole-3-carboxylic acid[1-(3′-methyl-biphenyl-2-carbonyl)-piperidin-3-yl]-amide], the 50% inhibitory concentration (IC50) at human orexin-1 receptor was determined as 33 nM; on human orexin-2 receptor, 15 nM.

For `COc1cc(OC)nc(N[C@@H]2CCCN(C(=O)c3ccccc3-c3ccc(C)c(C)c3)C2)n1` [Example 2, (R)-[3-(4,6-Dimethoxy-pyrimidin-2-ylamino)-piperidin-1-yl]-(3′,4′-dimethyl-biphenyl-2-yl)-methanone], the IC50 came out at 25 nM on human orexin-1 receptor and 10 nM at human orexin-2 receptor.

For `Cc1ccc(-c2ccccc2C(=O)N2CCC[C@@H](Nc3cnc4ccccc4n3)C2)cc1C` [Example 6, (R)-(3′,4′-Dimethyl-biphenyl-2-yl)-[3-(quinoxalin-2-ylamino)-piperidin-1-yl]-methanone], the figures for the IC50 on human orexin-1 receptor and on human orexin-2 receptor were 13 nM and 11 nM, respectively.

One may read the IC50 as the point on the concentration scale where inhibition reaches its midpoint.
